Measured values published in patent US5935954A, “Compounds with improved multi-drug resistance activity” (Vertex Pharmaceuticals Incorporated, priority 1997, dated 1999).

target: FKBP12 (Homo sapiens, UniProt P62942); assay: FKBP12 binding assay (inhibition of rotomase activity); type: biochemical; settings: apparent Ki
Text: Preferably, the assay measures inhibition of FKBP12 rotomase activity. Such an assay has also been described by M. W. Harding et al., supra and by J. J. Siekierka et al., supra. In this assay the isomerization of an artificial substrate--N-succinyl-Ala-Ala-Pro-Phe-p-nitroanilide--is followed spectrophotometrically. The assay includes the cis form of the substrate, FKBP12, the inhibitor and chymotrypsin. Chymotrypsin is able to cleave p-nitroanilide from the trans form of the substrate, but not the cis form. Release of p-nitroanilide is measured.
The inhibition of FKBP rotomase activity by the preferred FKBP12 binding compounds present in the compositions of this invention was assayed. In this assay various quantities of FKBP12 binding compound (0nM-10 μM) were added to cis-N-succinyl-Ala-Ala-Pro-Phe-p-nitroanilide in the presence of FKBP12 and chymotrypsin. FKBP12 converts the cis form of the substrate to the trans form. This allows chymotrypsin to cleave p-nitroanilide from the substrate. Release of p-nitroanilide was measured spectrophotometrically. This assay allowed me to measure the change in the first order rate constant of the rotomase activity as a function of FKBP12 binding compound concentration and yielded an estimate of apparent Ki.

Chain of FKBP12 (P62942 whole entry, species assumed): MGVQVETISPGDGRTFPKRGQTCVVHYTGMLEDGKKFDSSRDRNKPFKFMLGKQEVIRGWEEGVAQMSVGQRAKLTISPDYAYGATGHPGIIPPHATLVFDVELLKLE

Row | Structure (SMILES) | Ki [nM]
1 | COc1cc(C(=O)C(=O)N2CCCC[C@H]2C(=O)OC(CCCc2ccccc2)c2cccc(C(=CCCc3ccccc3)c3cccnc3)c2)cc(OC)c1OC (stereo partly drawn) [Compound 3] | 300
2 | CCOc1ccc(OCC)c(-c2cccc(C(CCCc3ccccc3)OC(=O)[C@@H]3CCCCN3C(=O)C(=O)c3cc(OC)c(OC)c(OC)c3)c2)c1 (stereo partly drawn) [Compound 4] | > 5000
3 | COc1cc(C(=O)C(=O)N2CCCC[C@H]2C(=O)O[C@@H](CCCc2ccccc2)c2cccc(/C(=C\CCc3ccccc3)c3cccnc3)c2)cc(OC)c1OC [Compound 5] | 4000
4 | COc1cc(C(=O)C(=O)N2CCCC[C@H]2C(=O)O[C@H](CCCc2ccccc2)c2cccc(/C(=C\CCc3ccccc3)c3cccnc3)c2)cc(OC)c1OC [Compound 6] | 24
5 | CCOc1ccc(OCC)c(-c2cccc([C@H](CCCc3ccccc3)OC(=O)[C@@H]3CCCCN3C(=O)C(=O)c3cc(OC)c(OC)c(OC)c3)c2)c1 [Compound 7] | > 10000
6 | CCOc1ccc(OCC)c(-c2cccc([C@@H](CCCc3ccccc3)OC(=O)[C@@H]3CCCCN3C(=O)C(=O)c3cc(OC)c(OC)c(OC)c3)c2)c1 [Compound 8] | 1000
7 | COc1cc(C(=O)C(=O)N2CCCC[C@H]2C(=O)O[C@H](CCCc2ccccc2)c2cccc(/C(=C\CCc3ccccc3)c3ccc[n+]([O-])c3)c2)cc(OC)c1OC [Compound 9] | 7
8 | CCOc1ccc(OCC)c(-c2cncc([C@@H](CCCc3ccccc3)OC(=O)[C@@H]3CCCCN3C(=O)C(=O)c3cc(OC)c(OC)c(OC)c3)c2)c1 [Compound 10] | 16
9 | CCOc1ccc(OCC)c(-c2cncc([C@@H](CCCc3ccccc3)OC(=O)[C@@H]3CCCCN3C(=O)C(=O)c3ccc(OC)c(OC)c3)c2)c1 [Compound 11] | 7
10 | CCOc1ccc(OCC)c(-c2cncc([C@H](CCCc3ccccc3)OC(=O)[C@@H]3CCCCN3C(=O)C(=O)c3ccc(OC)c(OC)c3)c2)c1 [Compound 12] | 30
11 | COc1ccc(C(=O)C(=O)N2CCCC[C@H]2C(=O)O[C@H](CCCc2ccccc2)c2cncc(-c3ccccc3OC)c2)cc1OC [Compound 13] | 5
12 | COc1ccc(C(=O)C(=O)N2CCCC[C@H]2C(=O)O[C@@H](CCCc2ccccc2)c2cncc(-c3ccccc3OC)c2)cc1OC [Compound 14] | 12
13 | COc1ccccc1-c1cncc([C@@H](CCCc2ccccc2)OC(=O)[C@@H]2CCCCN2C(=O)C(=O)c2cc(OC)c(OC)c(OC)c2)c1 [Compound 15] | 1
14 | CCC/C=C(/c1cccnc1)c1cccc([C@H](CCCc2ccccc2)OC(=O)[C@@H]2CCCCN2C(=O)C(=O)c2cc(OC)c(OC)c(OC)c2)c1 [Compound 16] | 3300
15 | CCC/C=C(/c1cccnc1)c1cccc([C@@H](CCCc2ccccc2)OC(=O)[C@@H]2CCCCN2C(=O)C(=O)c2cc(OC)c(OC)c(OC)c2)c1 [Compound 17] | 0.6
16 | CCOc1ccccc1-c1cncc([C@@H](CCCc2ccccc2)OC(=O)[C@@H]2CCCCN2C(=O)C(=O)c2cc(OC)c(OC)c(OC)c2)c1 [Compound 18] | 0.4
17 | CCOc1ccccc1-c1cncc([C@H](CCCc2ccccc2)OC(=O)[C@@H]2CCCCN2C(=O)C(=O)c2cc(OC)c(OC)c(OC)c2)c1 [Compound 19] | 27
18 | CCOc1ccccc1-c1cncc([C@@H](CCCc2ccccc2)OC(=O)[C@@H]2CCCCN2C(=O)C(=O)c2ccc(OC)c(OC)c2)c1 [Compound 20] | 5.8
19 | CCOc1ccccc1-c1cncc([C@H](CCCc2ccccc2)OC(=O)[C@@H]2CCCCN2C(=O)C(=O)c2ccc(OC)c(OC)c2)c1 [Compound 21] | 90
20 | CCCOc1ccc(OCCC)c(-c2cncc([C@H](CCCc3ccccc3)OC(=O)[C@@H]3CCCCN3C(=O)C(=O)c3cc(OC)c(OC)c(OC)c3)c2)c1 [Compound 23] | 2500
21 | COc1cc(C(=O)C(=O)N2CCCC[C@H]2C(=O)O[C@@H](CCCc2ccccc2)c2cncc(-c3c(OC)cccc3OC)c2)cc(OC)c1OC [Compound 25] | 30
22 | CC/C=C(/c1cccnc1)c1cccc([C@@H](CCCc2ccccc2)OC(=O)[C@@H]2CCCCN2C(=O)C(=O)c2cc(OC)c(OC)c(OC)c2)c1 [Compound 29] | 1
23 | CCC/C=C(\c1cccnc1)c1cccc([C@H](CCN2CCOCC2)OC(=O)[C@@H]2CCCCN2C(=O)C(=O)c2cc(OC)c(OC)c(OC)c2)c1 [Compound 31] | 130
24 | COc1cc(C(=O)C(=O)N2CCCC[C@H]2C(=O)O[C@@H](/C(C)=C/[C@H]2CC[C@H](O)CC2)c2cncc(-c3c(OC)cccc3OC)c2)cc(OC)c1OC [Compound 33] | 12
25 | CCCC/C=C(/c1cccnc1)c1cccc([C@@H](CCN2CCOCC2)OC(=O)[C@@H]2CCCCN2C(=O)C(=O)c2cc(OC)c(OC)c(OC)c2)c1 [Compound 34] | 6
26 | CCCC/C=C(/c1cccnc1)c1cccc([C@H](CCN2CCOCC2)OC(=O)[C@@H]2CCCCN2C(=O)C(=O)c2cc(OC)c(OC)c(OC)c2)c1 [Compound 35] | 380

Row | Structure (SMILES) | Ki [nM]
27 | CCCC/C=C(/c1cccnc1)c1cccc([C@H](CCCc2ccccc2)OC(=O)[C@@H]2CCCCN2C(=O)C(=O)c2cc(OC)c(OC)c(OC)c2)c1 [Compound 36] | > 30
28 | CCCC/C=C(/c1cccnc1)c1cccc([C@@H](CCCc2ccccc2)OC(=O)[C@@H]2CCCCN2C(=O)C(=O)c2cc(OC)c(OC)c(OC)c2)c1 [Compound 37] | < 1
29 | CCC/C=C(/c1ccc(C)cc1)c1cncc([C@@H](OC(=O)[C@@H]2CCCCN2C(=O)C(=O)c2ccc(F)cc2)/C(C)=C/[C@H]2CC[C@H](O)CC2)c1 [Compound 38] | 70
30 | CCC/C=C(/c1ccc(C)cc1)c1cncc([C@H](OC(=O)[C@@H]2CCCCN2C(=O)C(=O)c2ccc(F)cc2)/C(C)=C/[C@H]2CC[C@H](O)CC2)c1 [Compound 39] | 45
31 | COCc1cccc(COC)c1-c1cncc([C@H](OC(=O)[C@@H]2CCCCN2C(=O)C(=O)c2ccco2)/C(C)=C/[C@H]2CC[C@H](O)CC2)c1 [Compound 41] | 67
32 | CCC/C=C(\c1cncc([C@@H](OC(=O)[C@@H]2CCCCN2C(=O)C(=O)c2ccc(F)cc2)/C(C)=C/[C@H]2CC[C@H](O)CC2)c1)C1CCCCC1 [Compound 42] | 2100
33 | CCOCc1cc2ccccc2n1-c1cccc([C@H](OC(=O)[C@@H]2CCCCN2C(=O)C(=O)c2ccco2)/C(C)=C/[C@H]2CC[C@H](O)CC2)c1 [Compound 44] | 53
34 | CCC/C=C(\c1cncc([C@@H](OC(=O)[C@@H]2CCCCN2C(=O)C(=O)c2ccco2)/C(C)=C/[C@H]2CC[C@H](O)CC2)c1)C1CCCCC1 [Compound 45] | 230
35 | CCC/C=C(\c1cncc([C@H](OC(=O)[C@@H]2CCCCN2C(=O)C(=O)c2ccco2)/C(C)=C/[C@H]2CC[C@H](O)CC2)c1)C1CCCCC1 [Compound 46] | 100
36 | COC/C=C(\c1cncc([C@H](OC(=O)[C@@H]2CCCCN2C(=O)C(=O)c2ccco2)/C(C)=C/[C@H]2CC[C@H](O)CC2)c1)C1CCCCC1 [Compound 47] | 84
37 | COC/C=C(\c1cncc([C@@H](OC(=O)[C@@H]2CCCCN2C(=O)C(=O)c2ccco2)/C(C)=C/[C@H]2CC[C@H](O)CC2)c1)C1CCCCC1 [Compound 48] | 120
38 | CCOCc1cccc(COCC)c1-c1csc(C(CCN2CCOCC2)OC(=O)[C@@H]2CCCCN2C(=O)C(=O)C(C)(C)COC)c1 (stereo partly drawn) [Compound 49] | > 10000
39 | CCOCc1cccc(COCC)c1-c1csc(C(CCN2CCOCC2)OC(=O)[C@@H]2CCCCN2C(=O)C(=O)C(C)(C)COC)c1 (stereo partly drawn) [Compound 50] | > 10000
40 | COCc1cccc(COC)c1-c1cncc([C@H](OC(=O)[C@@H]2CCCCN2C(=O)C(=O)C(C)(C)COC)/C(C)=C/[C@H]2CC[C@H](O)CC2)c1 [Compound 51] | > 10000
41 | C=CCC/C=C(/c1cccnc1)c1ccc([C@H](OC(=O)[C@@H]2CCCCN2C(=O)C(=O)C(C)(C)C)/C(C)=C/C2CCN(C)CC2)s1 [Compound 53] | 70
42 | C=CCC/C=C(/c1cccnc1)c1ccc([C@@H](OC(=O)[C@@H]2CCCCN2C(=O)C(=O)C(C)(C)COC)/C(C)=C/C2CCN(C)CC2)s1 [Compound 55] | > 10000
43 | C=CCC/C=C(/c1cccnc1)c1ccc([C@H](OC(=O)[C@@H]2CCCCN2C(=O)C(=O)C(C)(C)COC)/C(C)=C/C2CCN(C)CC2)s1 [Compound 56] | > 5000
44 | CCOCc1cc2ccccc2n1-c1cccc([C@H](OC(=O)[C@@H]2CCCCN2C(=O)C(=O)C2(O)CCOCC2)/C(C)=C/[C@H]2CC[C@H](O)CC2)c1 [Compound 57] | 930
45 | CCOCc1cc2ccccc2n1-c1cccc([C@H](OC(=O)[C@@H]2CCCCN2C(=O)C(=O)C(C)(C)COC)/C(C)=C/[C@H]2CC[C@H](O)CC2)c1 [Compound 58] | > 9000
46 | COC/C=C(\c1cncc([C@H](OC(=O)[C@@H]2CCCCN2C(=O)C(=O)CC(C)C)/C(C)=C/[C@H]2CC[C@H](O)CC2)c1)C1CCCCC1 [Compound 60] | 57
47 | CCOCc1cccc(COCC)c1-c1csc([C@@H](CCN2CCOCC2)OC(=O)[C@@H]2CCCCN2C(=O)C(=O)C(C)(C)C)c1 [Compound 62] | 100
48 | CCOCc1cccc(COCC)c1-c1csc([C@@H](CCN2CCOCC2)OC(=O)[C@@H]2CCCCN2C(=O)C(=O)C(C)(C)C)c1 [Compound 63] | > 5000
49 | CCOCc1cccc(COCC)c1-c1csc([C@H](CCN2CCOCC2)OC(=O)[C@@H]2CCCCN2C(=O)C(=O)C(C)(C)C)c1 [Compound 64] | 340
50 | CCOCc1cc2ccccc2n1-c1cccc([C@H](OC(=O)[C@@H]2CCCCN2C(=O)C(=O)C2(O)CCOCC2)/C(C)=C/[C@H]2CC[C@H](O)CC2)c1 [Compound 65] | 490
51 | C=CCC/C=C(\c1ccc([C@@H](CCN2CCOCC2)OC(=O)[C@@H]2CCCCN2C(=O)C(=O)CC(C)C)s1)C1CCOCC1 [Compound 66] | 55
